According to US10906977B2, “Enhancing the therapeutic activity of immune checkpoint inhibitor” (Maine Medical Center Research Institute, priority 2016, dated 2021):

Assays:
LAG3 = assay: Checkpoint molecule expression in human T-cell lines stimulated with collagen peptides (Western blot); type: cell-based; conditions: Jurkat and CCL120.1; FIG. 35
Protocol: In order to confirm the functional ability of the XL313 cryptic collagen peptide P2 to regulate expression of the immune suppressive checkpoint molecule LAG3, αvβ3 expressing human T-cell lines Jurkat and CCL120.1 were stimulated with the cryptic collagen peptide P2 or control collagen peptides P1 or PC. Whole cell lysates from were analyzed for expression of PD-L1 and beta actin (β-Actin).

[1] = tested on: endothelial cells transduced with YAP specific or non-specific shRNAs; assay: Growth of shRNA transduced endothelial cells with soluble RGD peptides; type: cell-based, human
Protocol: (§1) HUVECs (WT, shYAP1 or control transfected) or HRMVECs were plated at 2,000 cells per well with complete EGM-2 media containing 2.0% FBS in the absence or presence of P-1, P-2 or P-C (100 ng/ml) and allowed to grow for 24 hours. Cell growth was monitored using a BrdU or MMT assay kits according to manufacturer's instructions. All assays were completed at least three times in triplicate wells.
Raw cells were transfected with 1 μg of HuSH shRNA plasmids for collagen type I, alpha 2 using Amaxa cell line nucleofector kit V (program #T024). Constructs expressing 21-nucleotide short hairpin RNAs (shRNA) targeting human YAP (shYAP) or non-targeting control (shNT, Sigma-Aldrich, SHC002) were used. Humantargeting shYAP1 lentiviral shRNA was obtained from the Thermo Scientific RNAi consortium (TRCN0000107625). Constructs were packaged into lentivirus, pseudotyped with the vesicular stomatitis virus glycoprotein. Transduction was performed by incubating cells with lentivirus, and stably transduced cells were subsequently used for studies. All cell lines were verified by morphology and mouse and human YAP-specific PCR. […] Endothelial cells were certified mycoplasma-negative by PCR (Lonza), and primary cell cultures were used within the indicated passage numbers. Cells were transduced and selected using puromycin.

integrin αvβ3 = biological target: T1, integrin αvβ3 (Homo sapiens, UniProt P05106+P06756); assay: Solid phase ELISA, recombinant integrin αvβ3 binding to immobilized peptide P-2; conditions: peptide immobilized 100 μg/ml; FIG. 30
T1 construct: purchased R&D Systems (Minneapolis, Minn.)
T1 sequence (P06756 31-992 limits assumed): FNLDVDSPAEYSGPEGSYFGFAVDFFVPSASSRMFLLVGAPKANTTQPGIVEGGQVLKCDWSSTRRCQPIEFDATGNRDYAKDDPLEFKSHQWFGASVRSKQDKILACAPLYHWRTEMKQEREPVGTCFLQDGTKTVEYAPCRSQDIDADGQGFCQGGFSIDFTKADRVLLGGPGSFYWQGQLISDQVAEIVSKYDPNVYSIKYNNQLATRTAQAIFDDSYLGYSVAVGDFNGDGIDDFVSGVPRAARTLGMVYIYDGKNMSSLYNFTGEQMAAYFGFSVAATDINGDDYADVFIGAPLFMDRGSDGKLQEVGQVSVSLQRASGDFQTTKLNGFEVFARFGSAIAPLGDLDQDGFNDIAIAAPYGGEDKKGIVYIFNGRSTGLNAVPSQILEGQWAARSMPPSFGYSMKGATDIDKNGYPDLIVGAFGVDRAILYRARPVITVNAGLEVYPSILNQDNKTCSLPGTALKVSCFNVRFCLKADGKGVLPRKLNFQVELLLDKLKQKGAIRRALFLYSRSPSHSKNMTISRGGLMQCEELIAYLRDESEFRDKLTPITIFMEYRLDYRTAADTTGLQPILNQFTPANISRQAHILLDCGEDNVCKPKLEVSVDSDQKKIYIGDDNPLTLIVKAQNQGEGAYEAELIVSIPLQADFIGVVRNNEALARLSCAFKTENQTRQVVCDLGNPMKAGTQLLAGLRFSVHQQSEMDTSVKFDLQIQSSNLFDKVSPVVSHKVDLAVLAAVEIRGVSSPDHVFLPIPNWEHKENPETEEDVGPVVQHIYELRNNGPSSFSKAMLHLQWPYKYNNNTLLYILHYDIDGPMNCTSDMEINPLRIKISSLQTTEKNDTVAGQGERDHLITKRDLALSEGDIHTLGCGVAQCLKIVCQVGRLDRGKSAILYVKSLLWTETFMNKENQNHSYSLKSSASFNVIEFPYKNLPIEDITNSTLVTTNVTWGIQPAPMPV
T1 sequence (P05106 27-718 limits assumed): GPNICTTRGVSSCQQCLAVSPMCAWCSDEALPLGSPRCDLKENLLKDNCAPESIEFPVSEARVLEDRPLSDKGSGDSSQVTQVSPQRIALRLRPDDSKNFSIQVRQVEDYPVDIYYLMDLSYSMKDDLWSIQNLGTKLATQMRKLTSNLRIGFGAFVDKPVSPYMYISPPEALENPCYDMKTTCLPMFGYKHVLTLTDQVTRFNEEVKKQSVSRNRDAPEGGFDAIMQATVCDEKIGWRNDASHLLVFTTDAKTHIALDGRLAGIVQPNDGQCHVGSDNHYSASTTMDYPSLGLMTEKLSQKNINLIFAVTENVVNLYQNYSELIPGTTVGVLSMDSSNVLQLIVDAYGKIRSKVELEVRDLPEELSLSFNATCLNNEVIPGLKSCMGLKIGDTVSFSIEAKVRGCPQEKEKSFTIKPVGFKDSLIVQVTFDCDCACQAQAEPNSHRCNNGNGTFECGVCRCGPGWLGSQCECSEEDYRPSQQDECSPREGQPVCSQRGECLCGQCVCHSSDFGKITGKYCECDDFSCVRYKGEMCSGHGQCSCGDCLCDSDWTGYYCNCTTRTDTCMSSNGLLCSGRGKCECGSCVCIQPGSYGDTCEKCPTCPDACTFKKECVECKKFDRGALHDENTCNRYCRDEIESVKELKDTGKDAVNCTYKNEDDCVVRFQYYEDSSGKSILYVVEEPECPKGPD
Protocol: The cryptic collagen peptide P-2 was immobilized (100 μg/ml) on microtiter wells and increasing concentrations of recombinant integrin αvβ3 was added and integrin binding was quantified. Data bars indicate mean integrin binding±standard deviation from triplicate wells.
The cryptic collagen peptide P-2 was immobilized (100 μg/ml) on microtiter wells and recombinant integrin αvβ3 was added and it was allowed to bind in the presence (50 μg/ml) or absence of Mab X1313 or control antibody (Mab XL166 directed to other collagen RGD peptides). Data bars indicate mean integrin binding±standard deviation from triplicate wells.

β3-integrin = biological target: T2, β3-integrin (Homo sapiens, UniProt P05106+P06756); assay: β3-integrin phosphorylation in endothelial cells attached to collagen peptides (Western blot); type: cell-based; conditions: absence of growth factors; FIG. 7C
T2 construct: endogenous in cells; host or cells: HUVEC
T2 sequence (P05106 27-788): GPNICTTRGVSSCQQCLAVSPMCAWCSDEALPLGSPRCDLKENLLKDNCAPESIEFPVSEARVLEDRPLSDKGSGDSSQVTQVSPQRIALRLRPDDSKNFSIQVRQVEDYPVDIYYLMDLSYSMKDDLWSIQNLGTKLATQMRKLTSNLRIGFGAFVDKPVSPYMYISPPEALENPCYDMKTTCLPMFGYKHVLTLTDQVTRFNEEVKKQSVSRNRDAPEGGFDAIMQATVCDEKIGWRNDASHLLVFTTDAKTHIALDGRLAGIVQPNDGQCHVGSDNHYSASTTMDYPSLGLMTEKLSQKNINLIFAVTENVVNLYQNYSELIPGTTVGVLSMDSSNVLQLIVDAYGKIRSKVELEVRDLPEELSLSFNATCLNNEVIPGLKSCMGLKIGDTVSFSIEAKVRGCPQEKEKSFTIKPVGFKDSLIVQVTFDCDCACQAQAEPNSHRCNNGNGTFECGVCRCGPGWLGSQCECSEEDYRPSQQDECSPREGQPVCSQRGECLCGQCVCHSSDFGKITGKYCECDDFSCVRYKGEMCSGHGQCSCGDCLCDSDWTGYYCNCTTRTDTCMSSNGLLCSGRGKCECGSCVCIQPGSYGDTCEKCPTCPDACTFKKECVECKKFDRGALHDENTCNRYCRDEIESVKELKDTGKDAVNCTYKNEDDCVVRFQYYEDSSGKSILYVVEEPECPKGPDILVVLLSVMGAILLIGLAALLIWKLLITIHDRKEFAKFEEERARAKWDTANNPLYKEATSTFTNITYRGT
T2 sequence (P06756 31-889 limits assumed): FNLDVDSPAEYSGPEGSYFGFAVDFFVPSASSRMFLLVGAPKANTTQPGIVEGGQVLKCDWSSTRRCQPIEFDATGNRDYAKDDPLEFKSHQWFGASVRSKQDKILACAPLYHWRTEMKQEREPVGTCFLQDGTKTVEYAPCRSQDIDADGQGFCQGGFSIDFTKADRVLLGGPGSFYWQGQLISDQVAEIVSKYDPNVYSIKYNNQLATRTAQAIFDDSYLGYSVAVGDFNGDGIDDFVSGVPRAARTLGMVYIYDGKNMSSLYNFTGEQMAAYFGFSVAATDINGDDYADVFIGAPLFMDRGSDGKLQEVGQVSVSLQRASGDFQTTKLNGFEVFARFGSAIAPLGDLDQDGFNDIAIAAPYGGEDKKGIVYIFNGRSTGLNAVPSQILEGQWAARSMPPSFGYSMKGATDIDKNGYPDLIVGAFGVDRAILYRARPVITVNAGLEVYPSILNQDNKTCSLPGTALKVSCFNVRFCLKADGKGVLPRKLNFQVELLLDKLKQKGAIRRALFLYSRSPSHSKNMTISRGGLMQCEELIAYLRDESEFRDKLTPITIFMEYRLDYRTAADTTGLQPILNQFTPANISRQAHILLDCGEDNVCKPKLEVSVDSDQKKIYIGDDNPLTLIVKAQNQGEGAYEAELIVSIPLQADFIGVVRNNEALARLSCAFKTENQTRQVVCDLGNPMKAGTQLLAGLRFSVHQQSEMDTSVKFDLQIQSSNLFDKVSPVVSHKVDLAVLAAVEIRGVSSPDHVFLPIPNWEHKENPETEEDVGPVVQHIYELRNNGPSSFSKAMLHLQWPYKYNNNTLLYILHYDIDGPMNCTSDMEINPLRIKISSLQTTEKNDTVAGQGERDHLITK
T2 sequence (P06756 891-1048 partner limits assumed): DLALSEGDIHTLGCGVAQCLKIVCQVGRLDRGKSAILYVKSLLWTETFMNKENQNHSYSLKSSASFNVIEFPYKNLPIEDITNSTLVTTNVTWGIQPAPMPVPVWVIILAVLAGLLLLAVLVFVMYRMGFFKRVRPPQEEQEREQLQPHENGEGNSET
Protocol: Endothelial cells (HUVECs or HRMVECs) were incubated in serum free media with 1 mM MgCl2, 0.2 mM MnCl2 in the presence of a Src inhibitor, PP2, (10 μM) a P38MAPK inhibitor, SB202190 (10 μM) or vehicle only (DMSO) for 10 min at 37° C. Treated cells were then seeded on to immobilized P-1 and P-2 and lysates were collected at 15 min.
Whole cell and CAM tissue lysates were collected in RIPA buffer supplemented with 1× protease inhibitor and 1× phosphatase inhibitor and were run on polyacrylamide gels using denaturing conditions. Prior to loading the gels, 6× sample buffer was added to each of the lysates (final concentration 1×) and boiled for five minutes. Twenty to 50 μg of total protein were loaded into each lane. […] Gels were run at 60 volts (v) until the dye front passed through the stacking gel, and then the voltage was increased to 100V for the remainder of the separation. Precision Plus protein standards (Bio-Rad) were used to visualize migration. Protein was transferred to nitrocellulose membranes using a wet tank system and blocked for 1 h using 10% non-fat dried milk in tris-buffered saline with 0.01% Tween-20 (TBS-T). […] Membranes were washed 3 times in TBS-T for five minutes. Blots were then incubated with HRP conjugated secondary antibodies (1:15000) in 1% non-fat milk in TBS-T for 1 h. […] Western blot bands were quantified using Image J software based on pixel intensity.

P38MAPK = assay: Phosphorylated P38MAPK in CAM tissue lysates (Western blot); type: in vivo, chick; conditions: peptide treated CAMs; FIG. 6B
Protocol: The chick chorioallantoic membrane (CAM) assays were carried out with some modifications (19). […] Filter discs either non-treated (inflammation assays) pretreated (angiogenesis assays) with cortisone acetate (3.0 mg/ml) containing RPMI only or FGF-2 (40 ng). CAMs were either non-treated or treated topically with Mab XL313, XL166 or a non-specific control antibody (10 μg/embryo every 24 h for three consecutive treatments). […] At the end of the incubation period the embryos were sacrificed and the CAM tissues were analyzed. Angiogenesis was quantified by counting the number of angiogenic branching blood vessels within the area of the filter disc. The angiogenic index was determined by subtracting the mean number of blood vessel branch points from untreated CAMs from each experimental condition. Eight to twelve embryos were used per condition and experiments were repeated at least three times.
Whole cell and CAM tissue lysates were collected in RIPA buffer supplemented with 1× protease inhibitor and 1× phosphatase inhibitor and were run on polyacrylamide gels using denaturing conditions. Prior to loading the gels, 6× sample buffer was added to each of the lysates (final concentration 1×) and boiled for five minutes. Twenty to 50 μg of total protein were loaded into each lane. […] Western blot bands were quantified using Image J software based on pixel intensity.

HRMVEC = assay: Endothelial cell proliferation with soluble RGD peptides; type: cell-based, human; conditions: 100 ng/ml, 24 hours; FIG. 8D
Protocol: as §1

HUVEC = assay: as above; type: cell-based, human; conditions: 100 ng/ml, 24 hours; FIG. 8C
Protocol: as §1

PD-L1 = PD-L1 in control and β3 integrin knock down T-cells stimulated with peptide (western blot); type: cell-based, human; conditions: FIG. 33
Protocol: In order to confirm the functional role of integrin αvβ3 receptor in regulating the levels of the immune suppressive molecule PD-L1 by the XL313 cryptic collagen peptide P2, the expression of PD-L1 was examined in β3 integrin knock down and control transfected T-cells. Whole cell lysates from control transfected (Cont T-cells) and β3 integrin shRNA transfected T-cells (β3/KD) that were stimulated with control peptide (PC) or the XL313 cryptic collagen peptide (P2) were analyzed by western blot for expression of PD-L1.

T-cell (Jurkat) = assay: T-cell migration on denatured collagen type-IV (transwell); type: cell-based, human; conditions: P2 1.0 ug/ml; FIG. 34
Protocol: Membranes of transwell migration chambers were coated with denatured collagen type-IV to mimic the altered basement membrane in tumor vessels. Left). T-cell (Jurkat) migration in the presence or absence of the cryptic collagen peptide P2 (1.0 ug/ml) and/or Mab XL313 and non-specific control antibody (50 μg/ml). Right). T-cell (Jurkat) migration in the presence or absence of Raw macrophage concentrated conditioned medium (CM) and/or Mab XL313 and non-specific control antibody (50 μg/ml). Data bars represent mean cell migration+SE from triplicate wells.

binding of integrin receptor αvβ3 to peptide (integrin αvβ3): dose-dependently binds
increase of β3 phosphorylation as compared to P-1 (β3-integrin): over 3 fold
Sequence: CQGPRGDKGEC [Mab P-2]
expression of LAG3 in human T-cells (LAG3): induces expression of the immunosuppressive molecule LAG3
levels of PD-L1 in stimulated T-cells as compared to controls (LAG3): clear increase in the levels of PD-L1
growth of endothelial cells in which YAP was knocked down ([1]; YAP specific shRNA, FIG. 8H): failed to induce growth
growth of control transduced endothelial cells with soluble peptide ([1]; non-specific shRNA, FIG. 8G): enhanced growth
increase in phosphorylation of P38MAPK in CAM tissues as compared to controls (P38MAPK): 4 fold
HRMVEC growth with soluble peptide (HRMVEC): enhanced endothelial cell growth
HUVEC growth with soluble peptide (HUVEC): enhanced endothelial cell growth
expression of PD-L1 in control transfected T-cells (PD-L1): enhanced expression of PD-L1
expression of PD-L1 in β3 integrin knock down cells (PD-L1): little ability to enhance the expression of PD-L1
effect on T-cell migration (T-cell (Jurkat)): inhibitory effects
